The experiment deals with Glycogen synthase kinase-3 beta (Homo sapiens, UniProt P49841). The experiment is described as follows: Inhibition of human recombinant GSK3-beta.
Chain of Glycogen synthase kinase-3 beta (P49841 whole entry): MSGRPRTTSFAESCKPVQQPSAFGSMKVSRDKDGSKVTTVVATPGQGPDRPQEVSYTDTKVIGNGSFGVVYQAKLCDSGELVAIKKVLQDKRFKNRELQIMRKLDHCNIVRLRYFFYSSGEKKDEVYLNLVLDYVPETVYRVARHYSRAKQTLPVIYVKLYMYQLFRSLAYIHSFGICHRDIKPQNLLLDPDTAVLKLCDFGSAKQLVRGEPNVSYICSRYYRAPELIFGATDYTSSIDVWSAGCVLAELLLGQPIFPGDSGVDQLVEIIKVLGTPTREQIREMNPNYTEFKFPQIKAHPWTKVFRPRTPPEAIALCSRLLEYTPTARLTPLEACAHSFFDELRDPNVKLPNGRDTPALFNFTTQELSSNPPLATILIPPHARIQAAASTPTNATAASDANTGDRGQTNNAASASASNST

In the case of `CN(C)c1nc2ccc1CCCn1cc(c3ccccc31)C1=C(C(=O)NC1=O)c1cn(c3ccccc13)CCC2`, the IC50 (as a rule, the point on the concentration scale where inhibition reaches its midpoint) came out at 37 nM.

The values above are taken from ChEMBL document CHEMBL1139192, “Novel bis(indolyl)maleimide pyridinophanes that are potent, selective inhibitors of glycogen synthase kinase-3” (Bioorg Med Chem Lett, 2007).
